A word on the EC50: it is the concentration giving half of the maximal effect. The Emax is the greatest response seen or fitted, relative to the assay's reference.

We go through 6 compounds from ChEMBL document CHEMBL4699481, “Structure-based amelioration of PXR transactivation in a novel series of macrocyclic allosteric inhibitors of HIV-1 integrase” (Bioorg Med Chem Lett, 2020).

Data set [1] can be described thus: Allosteric inhibition of HIV-1 integrase assessed as antiviral activity against HIV-1 NL4-3 infected in human MT-2 cells by measuring inhibition of viral growth by luciferase reporter gene assay. As to conditions: Human immunodeficiency virus 1, NL4-3, MT2. Format: cell-based. (A reporter such as luciferase makes a cellular process visible.)
Data set [2] addresses T1, Nuclear receptor subfamily 1 group I member 2 (Homo sapiens, UniProt O75469).
T1 sequence (O75469 whole entry): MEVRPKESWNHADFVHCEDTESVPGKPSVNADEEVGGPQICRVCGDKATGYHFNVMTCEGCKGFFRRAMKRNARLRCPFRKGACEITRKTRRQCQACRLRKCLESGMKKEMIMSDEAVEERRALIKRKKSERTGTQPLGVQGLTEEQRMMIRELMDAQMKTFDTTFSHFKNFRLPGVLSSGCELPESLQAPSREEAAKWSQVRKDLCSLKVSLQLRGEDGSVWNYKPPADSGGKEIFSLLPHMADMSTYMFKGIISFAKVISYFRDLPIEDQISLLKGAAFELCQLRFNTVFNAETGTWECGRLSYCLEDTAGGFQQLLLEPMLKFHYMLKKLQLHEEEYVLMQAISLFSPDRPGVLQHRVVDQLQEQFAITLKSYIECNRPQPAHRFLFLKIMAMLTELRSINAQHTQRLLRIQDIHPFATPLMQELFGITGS
The data set can be described thus: Transactivation of human PXR transfected in human HepG2 cells co-transfected with CYP3A4-Luc plasmid incubated for overnight by luciferase reporter gene assay. In kind it is ADME, cell-based.

The target in the next data set is T2, PXR (NR1I2) (Homo sapiens, UniProt O75469).
T2 sequence (O75469 whole entry): T1 sequence (O75469 whole entry)
The data set can be described thus: Transactivation of human PXR transfected in human HepG2 cells co-transfected with CYP3A4-Luc plasmid incubated for overnight by luciferase reporter gene assay relative to 10 uM rifampicin. Format: ADME, cell-based.

On to `Cc1nc2cc(-c3cccc(-c4ccccc4)c3)nn2c(N2CCC(C)(C)CC2)c1[C@H](OC(C)(C)C)C(=O)O`, for which, in data set [1], the EC50 turned out to be 130 nM.
For the compound `Cc1c([C@H](OC(C)(C)C)C(=O)O)c2n3cc(nc3c1CN(C)C)-c1cccc(c1)-c1cc(F)ccc1O[C@@H](C)CCCCOC1(C)CCN2CC1`, the EC50 in data set [1] is 4.4 nM; in data set [2], over 50000 nM.
The corresponding values for `Cc1c([C@H](OC(C)(C)C)C(=O)O)c2n3cc(nc3c1CNCC(C)(C)O)-c1cccc(c1)-c1cc(F)ccc1O[C@@H](C)CCCCOC1(C)CCN2CC1` are 9.5 nM and over 50000 nM.
As for `Cc1c([C@H](OC(C)(C)C)C(=O)O)c2n3cc(nc3c1CNC(C)C)-c1cccc(c1)-c1cc(F)ccc1O[C@@H](C)CCCCOC1(C)CCN2CC1`, the figures for the EC50 in data set [1] and in data set [2] were 7.3 nM and over 50000 nM, respectively.
`Cc1c([C@H](OC(C)(C)C)C(=O)O)c2n3cc(nc3c1C(C)(C)O)-c1cccc(c1)-c1cc(F)ccc1O[C@@H](C)CCCCOC1(C)CCN2CC1`: the half-maximal effective concentration (EC50) in data set [1] turned out to be 5.7 nM; in data set [2], 1010 nM. On PXR (NR1I2), this compound gave an Emax of 71%.
For `Cc1cc2nc(-c3cccc(-c4cccc(F)c4)c3)cn2c(N2CCC(C)(C)CC2)c1[C@H](OC(C)(C)C)C(=O)O`, in data set [1], the 50% effective concentration (EC50) came out at 20.9 nM.
